For 2 compounds, Activity results are on record in ChEMBL document CHEMBL5678818, “Discovery of potent SOS1 inhibitors that block RAS activation via disruption of the RAS-SOS1 interaction” (Proc Natl Acad Sci U S A, 2019).

For experiment [1], the target named is T1, Ephrin type-B receptor 2 (Homo sapiens) (UniProt P29323).
T1 sequence (whole entry): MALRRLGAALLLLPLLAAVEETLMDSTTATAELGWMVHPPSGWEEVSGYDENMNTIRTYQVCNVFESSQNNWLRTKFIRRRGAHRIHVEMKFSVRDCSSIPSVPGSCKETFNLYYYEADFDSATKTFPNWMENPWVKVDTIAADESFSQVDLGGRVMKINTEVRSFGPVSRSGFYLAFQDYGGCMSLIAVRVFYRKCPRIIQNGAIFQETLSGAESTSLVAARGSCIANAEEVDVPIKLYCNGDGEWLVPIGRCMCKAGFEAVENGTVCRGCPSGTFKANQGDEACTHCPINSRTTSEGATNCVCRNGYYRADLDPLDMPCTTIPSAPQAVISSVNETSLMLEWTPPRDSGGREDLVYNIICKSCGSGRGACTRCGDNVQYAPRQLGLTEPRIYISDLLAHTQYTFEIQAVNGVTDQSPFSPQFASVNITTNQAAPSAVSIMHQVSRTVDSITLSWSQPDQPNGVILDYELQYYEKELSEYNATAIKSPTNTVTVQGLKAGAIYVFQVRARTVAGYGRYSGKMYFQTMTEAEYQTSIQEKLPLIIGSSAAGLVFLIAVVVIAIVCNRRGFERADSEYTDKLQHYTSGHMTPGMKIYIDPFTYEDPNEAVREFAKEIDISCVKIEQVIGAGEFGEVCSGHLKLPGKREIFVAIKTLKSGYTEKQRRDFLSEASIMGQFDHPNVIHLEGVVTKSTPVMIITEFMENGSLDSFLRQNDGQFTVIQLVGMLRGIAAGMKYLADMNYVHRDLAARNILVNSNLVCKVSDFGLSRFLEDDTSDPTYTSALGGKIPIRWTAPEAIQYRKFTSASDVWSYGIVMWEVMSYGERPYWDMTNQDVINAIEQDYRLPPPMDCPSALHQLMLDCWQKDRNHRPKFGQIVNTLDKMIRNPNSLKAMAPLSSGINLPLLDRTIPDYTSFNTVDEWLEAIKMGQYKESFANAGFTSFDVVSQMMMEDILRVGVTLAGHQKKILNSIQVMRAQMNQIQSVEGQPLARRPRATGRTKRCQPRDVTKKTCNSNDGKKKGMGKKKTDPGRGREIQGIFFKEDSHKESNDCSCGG
Put plainly: Inhibition of EPHB2 (unknown origin) assessed as residual activity at 1000 nM by KINOMEscan analysis relative to control.

The target of experiment [2] is T2, Membrane-associated tyrosine- and threonine-specific cdc2-inhibitory kinase (Homo sapiens) (UniProt Q99640).
T2 sequence (whole entry): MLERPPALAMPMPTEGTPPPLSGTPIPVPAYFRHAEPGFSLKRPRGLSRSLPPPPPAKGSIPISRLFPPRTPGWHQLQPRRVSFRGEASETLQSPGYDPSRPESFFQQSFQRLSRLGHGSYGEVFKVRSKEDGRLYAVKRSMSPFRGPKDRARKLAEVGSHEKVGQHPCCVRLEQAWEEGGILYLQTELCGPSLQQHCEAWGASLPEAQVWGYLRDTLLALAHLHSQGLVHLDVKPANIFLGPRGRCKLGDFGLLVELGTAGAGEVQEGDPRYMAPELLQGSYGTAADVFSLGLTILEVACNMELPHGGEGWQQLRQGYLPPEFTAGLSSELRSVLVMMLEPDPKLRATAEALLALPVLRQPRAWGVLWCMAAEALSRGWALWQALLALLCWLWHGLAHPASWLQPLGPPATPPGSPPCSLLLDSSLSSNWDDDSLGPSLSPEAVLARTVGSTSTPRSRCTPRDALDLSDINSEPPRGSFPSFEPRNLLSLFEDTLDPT
The experiment can be described thus: Inhibition of PKMYT1 (unknown origin) assessed as residual activity at 1000 nM by KINOMEscan analysis relative to control.

Experiment [3] relates to Phosphatidylinositol 4,5-bisphosphate 3-kinase catalytic subunit alpha isoform (Homo sapiens), P42336 [H1047Y]. The experiment can be described thus: Inhibition of PIK3CA H1047Y mutant (unknown origin) assessed as residual activity at 1000 nM by KINOMEscan analysis relative to control.
The target of experiment [4] is T3, Dual specificity mitogen-activated protein kinase kinase 3 (Homo sapiens) (UniProt P46734).
T3 sequence (whole entry): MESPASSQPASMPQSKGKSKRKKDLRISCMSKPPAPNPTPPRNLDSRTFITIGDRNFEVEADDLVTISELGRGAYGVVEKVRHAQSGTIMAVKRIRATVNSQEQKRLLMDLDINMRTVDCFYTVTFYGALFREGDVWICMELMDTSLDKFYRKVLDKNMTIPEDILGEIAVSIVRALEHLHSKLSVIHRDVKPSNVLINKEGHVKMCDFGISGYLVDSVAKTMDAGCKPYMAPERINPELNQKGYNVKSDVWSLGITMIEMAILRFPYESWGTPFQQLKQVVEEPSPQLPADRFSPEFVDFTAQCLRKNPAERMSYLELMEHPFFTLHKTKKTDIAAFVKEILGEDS
Put plainly: Inhibition of MEK3 (unknown origin) assessed as residual activity at 1000 nM by KINOMEscan analysis relative to control.

Experiment [5] concerns the target BDNF/NT-3 growth factors receptor (Homo sapiens) (UniProt Q16620). Put plainly: Inhibition of TRKB (unknown origin) assessed as residual activity at 1000 nM by KINOMEscan analysis relative to control.
In experiment [6] the test system is eIF-2-alpha kinase GCN2 (Homo sapiens), Q9P2K8 [S808G]. Put plainly: Inhibition of GCN2 S808G mutant […] domain (unknown origin) assessed as residual activity at 1000 nM by KINOMEscan analysis relative to control.
eIF-2-alpha kinase GCN2 (Homo sapiens), Q9P2K8 [S808G], sequence (Q9P2K8 whole entry S808G): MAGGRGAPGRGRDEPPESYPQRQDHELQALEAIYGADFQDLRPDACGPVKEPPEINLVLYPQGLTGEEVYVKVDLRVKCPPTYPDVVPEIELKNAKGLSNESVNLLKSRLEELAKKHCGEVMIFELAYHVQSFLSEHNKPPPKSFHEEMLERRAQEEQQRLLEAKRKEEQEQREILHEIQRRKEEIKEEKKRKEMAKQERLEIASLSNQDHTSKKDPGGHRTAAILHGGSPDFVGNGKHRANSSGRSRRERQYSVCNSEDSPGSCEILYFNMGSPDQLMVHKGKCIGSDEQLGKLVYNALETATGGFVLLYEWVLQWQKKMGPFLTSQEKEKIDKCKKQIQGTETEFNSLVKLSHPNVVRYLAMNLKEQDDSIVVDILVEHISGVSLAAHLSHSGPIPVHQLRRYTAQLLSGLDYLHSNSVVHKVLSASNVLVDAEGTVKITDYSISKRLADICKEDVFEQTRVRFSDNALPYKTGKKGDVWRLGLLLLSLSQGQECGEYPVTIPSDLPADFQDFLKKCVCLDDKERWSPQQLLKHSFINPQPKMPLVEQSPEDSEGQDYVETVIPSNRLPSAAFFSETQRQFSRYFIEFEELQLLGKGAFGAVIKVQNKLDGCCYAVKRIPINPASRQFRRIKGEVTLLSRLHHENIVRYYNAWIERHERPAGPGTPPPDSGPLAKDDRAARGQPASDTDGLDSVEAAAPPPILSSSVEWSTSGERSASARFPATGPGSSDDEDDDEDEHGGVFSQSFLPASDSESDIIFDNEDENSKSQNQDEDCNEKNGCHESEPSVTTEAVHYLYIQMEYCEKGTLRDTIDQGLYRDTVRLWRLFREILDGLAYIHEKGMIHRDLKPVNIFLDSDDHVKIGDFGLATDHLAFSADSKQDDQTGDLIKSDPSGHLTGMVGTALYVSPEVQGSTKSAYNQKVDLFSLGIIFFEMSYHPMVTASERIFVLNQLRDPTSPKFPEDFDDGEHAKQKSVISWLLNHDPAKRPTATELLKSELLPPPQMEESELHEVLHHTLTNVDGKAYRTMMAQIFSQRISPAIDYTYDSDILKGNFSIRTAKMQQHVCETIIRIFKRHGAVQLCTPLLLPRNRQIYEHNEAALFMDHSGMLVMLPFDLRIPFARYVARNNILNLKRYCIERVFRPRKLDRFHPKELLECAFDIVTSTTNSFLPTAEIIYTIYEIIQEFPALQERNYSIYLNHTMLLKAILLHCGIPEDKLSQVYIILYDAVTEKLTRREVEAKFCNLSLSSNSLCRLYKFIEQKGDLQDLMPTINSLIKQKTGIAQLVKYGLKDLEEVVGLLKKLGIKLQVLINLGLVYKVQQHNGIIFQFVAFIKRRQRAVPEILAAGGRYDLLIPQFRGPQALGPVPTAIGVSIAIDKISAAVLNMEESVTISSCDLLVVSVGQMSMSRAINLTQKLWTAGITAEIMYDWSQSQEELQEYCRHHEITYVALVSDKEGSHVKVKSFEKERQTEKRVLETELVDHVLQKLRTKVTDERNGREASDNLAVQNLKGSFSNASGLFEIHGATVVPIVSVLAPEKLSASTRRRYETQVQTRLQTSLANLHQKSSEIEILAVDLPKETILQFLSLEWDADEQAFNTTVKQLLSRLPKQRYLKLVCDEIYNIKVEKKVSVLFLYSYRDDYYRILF

BDNF/NT-3 growth factors receptor (Homo sapiens), sequence (Q16620 32-822 limits assumed): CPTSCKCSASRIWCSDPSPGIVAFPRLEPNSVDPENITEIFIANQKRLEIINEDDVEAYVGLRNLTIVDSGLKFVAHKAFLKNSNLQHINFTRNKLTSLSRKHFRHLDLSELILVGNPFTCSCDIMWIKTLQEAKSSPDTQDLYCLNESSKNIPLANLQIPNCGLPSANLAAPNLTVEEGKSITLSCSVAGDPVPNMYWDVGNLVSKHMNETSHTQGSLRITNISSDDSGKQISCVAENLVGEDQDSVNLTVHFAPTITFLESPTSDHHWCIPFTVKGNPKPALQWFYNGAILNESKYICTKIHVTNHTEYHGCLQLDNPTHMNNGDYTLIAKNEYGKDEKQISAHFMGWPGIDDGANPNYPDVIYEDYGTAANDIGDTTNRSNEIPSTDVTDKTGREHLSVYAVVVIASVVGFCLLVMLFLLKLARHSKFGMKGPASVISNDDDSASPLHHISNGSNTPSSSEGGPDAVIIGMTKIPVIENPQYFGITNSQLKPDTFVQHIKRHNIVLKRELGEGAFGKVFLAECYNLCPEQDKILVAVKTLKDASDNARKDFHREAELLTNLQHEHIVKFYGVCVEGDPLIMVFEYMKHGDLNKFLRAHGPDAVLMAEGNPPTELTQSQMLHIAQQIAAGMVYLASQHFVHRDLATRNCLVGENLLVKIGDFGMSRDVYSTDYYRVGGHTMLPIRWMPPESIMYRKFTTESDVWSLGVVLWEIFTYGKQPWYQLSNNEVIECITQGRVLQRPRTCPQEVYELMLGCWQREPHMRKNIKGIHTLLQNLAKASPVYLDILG
Phosphatidylinositol 4,5-bisphosphate 3-kinase catalytic subunit alpha isoform (Homo sapiens), P42336 [H1047Y], sequence (P42336 whole entry H1047Y, canonical isoform): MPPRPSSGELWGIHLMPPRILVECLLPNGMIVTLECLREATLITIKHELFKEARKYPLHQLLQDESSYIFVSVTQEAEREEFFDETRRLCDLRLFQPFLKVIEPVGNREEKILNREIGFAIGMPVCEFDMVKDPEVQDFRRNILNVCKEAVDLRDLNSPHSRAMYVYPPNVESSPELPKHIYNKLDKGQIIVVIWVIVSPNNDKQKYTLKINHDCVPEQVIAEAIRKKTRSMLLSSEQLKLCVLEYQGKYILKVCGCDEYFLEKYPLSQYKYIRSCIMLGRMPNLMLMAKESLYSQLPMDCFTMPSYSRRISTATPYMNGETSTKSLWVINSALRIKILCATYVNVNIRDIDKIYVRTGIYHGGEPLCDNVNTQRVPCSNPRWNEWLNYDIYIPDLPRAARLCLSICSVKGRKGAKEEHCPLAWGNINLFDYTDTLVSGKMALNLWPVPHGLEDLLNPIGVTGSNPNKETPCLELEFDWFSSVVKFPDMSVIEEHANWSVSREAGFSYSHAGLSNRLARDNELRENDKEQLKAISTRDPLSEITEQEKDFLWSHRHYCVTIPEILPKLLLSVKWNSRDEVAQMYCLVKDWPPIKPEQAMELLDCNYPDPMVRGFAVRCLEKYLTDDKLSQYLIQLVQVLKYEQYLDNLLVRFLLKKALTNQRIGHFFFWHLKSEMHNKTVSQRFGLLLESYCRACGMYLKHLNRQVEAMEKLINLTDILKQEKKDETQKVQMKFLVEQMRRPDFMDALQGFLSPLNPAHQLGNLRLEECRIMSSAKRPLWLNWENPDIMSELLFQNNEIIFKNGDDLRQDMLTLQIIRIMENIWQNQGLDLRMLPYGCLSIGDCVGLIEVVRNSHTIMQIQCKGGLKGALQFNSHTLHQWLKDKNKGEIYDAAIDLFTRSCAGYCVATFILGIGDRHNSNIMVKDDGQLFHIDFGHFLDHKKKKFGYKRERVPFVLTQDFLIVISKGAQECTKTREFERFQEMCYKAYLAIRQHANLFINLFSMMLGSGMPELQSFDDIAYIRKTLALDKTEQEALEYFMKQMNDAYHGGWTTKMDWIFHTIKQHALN

With `COc1cc2nc(C)nc(N[C@H](C)c3cccc(-c4cn[nH]c4)c3)c2cc1OC`, the Activity amounted to 98% in experiment [1]; 53% in experiment [2]; 63% in experiment [3]; 54% in experiment [4]; 98% in experiment [5]; 100% in experiment [6].

Turning to `COc1cc2ncnc(N[C@H](C)c3cccc4ccccc34)c2cc1OC`, the Activity in experiment [1] was found to be 94%; in experiment [2] it was 100%; in experiment [3] it was 89%; in experiment [4] it was 100%; in experiment [5], 100%; in experiment [6], 100%.
